# Laboratory results taken from PubChem BioAssay (NCI).
#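 Step 1: Grow cells in 96-well plates. Step 2: Expose to compound for 48 hours at 5 concentrations. Step 3: Interpolate endpoints linearly; if unreached, use highest concentration. The concentration for 50% growth inhibition is given as GI50. TGI is the concentration that stops growth completely.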
# What was measured:
# Assay in all cases: inhibition of tumour cell growth, NCI panel, 48 h
# HCT-116 colon = system: HCT-116 colon
# MDA-MB-435 = system: MDA-MB-435
# NCI-H226 lung = system: NCI-H226 lung
# NCI-H460 lung = system: NCI-H460 lung
# NCI-H522 lung = system: NCI-H522 lung
# OVCAR-3 ovarian = system: OVCAR-3 ovarian
# SK-MEL-28 melanoma = system: SK-MEL-28 melanoma
# SK-OV-3 ovarian = system: SK-OV-3 ovarian
# TK-10 renal = system: TK-10 renal
# UACC-257 melanoma = system: UACC-257 melanoma
Structure (SMILES),GI50 (HCT-116 colon) [µM],TGI (HCT-116 colon) [µM],GI50 (MDA-MB-435) [µM],TGI (MDA-MB-435) [µM],GI50 (NCI-H226 lung) [µM],TGI (NCI-H226 lung) [µM],GI50 (NCI-H460 lung) [µM],TGI (NCI-H460 lung) [µM],GI50 (NCI-H522 lung) [µM],TGI (NCI-H522 lung) [µM],GI50 (OVCAR-3 ovarian) [µM],TGI (OVCAR-3 ovarian) [µM],GI50 (SK-MEL-28 melanoma) [µM],TGI (SK-MEL-28 melanoma) [µM],GI50 (SK-OV-3 ovarian) [µM],TGI (SK-OV-3 ovarian) [µM],GI50 (TK-10 renal) [µM],TGI (TK-10 renal) [µM],GI50 (UACC-257 melanoma) [µM],TGI (UACC-257 melanoma) [µM]
O=C(NCCc1ccccn1)OCc1nc2nc(Cl)nc(N3CCOCC3)c2[nH]1,0.816,2.09,1.33,2.78,1.61,3.29,3.12,11.1,1.93,4.96,1.26,2.73,1.67,3.32,6.11,19.5,1.94,4,1.87,5.26
COc1cc2c(cc1OCCCCCCN1CCN(CC(=O)Nc3ccc(Cl)cc3C(=O)c3ccccc3Cl)CC1)N=CC1CCCN1C2=O (centres undefined),0.183,0.481,0.157,0.304,0.575,1.45,0.18,0.334,0.143,0.322,0.189,0.396,0.185,0.332,0.494,1.17,0.497,1.17,0.2,0.775
C=CC(=O)Nc1cc(N2CCN(CC)CC2)ccc1Nc1cc(N(C)C(=O)Nc2c(Cl)c(OC)cc(OC)c2Cl)ncn1,3.37,14.2,3.47,14.4,14.2,35.8,7.67,24.7,4.77,20.3,3.49,15.4,2.03,4.53,12.3,27.5,10.6,26,13.5,30.1
Cc1nc(Nc2cccnc2)sc1C(=O)/C=C/c1ccc(Cl)cc1,1.85,5.03,2.26,6.46,2.75,8.12,3.5,13.8,2.14,5.33,3.27,16.2,3.04,14.7,3.88,> 100,3.53,12.1,9.22,> 100
Cc1nc(Nc2ccccn2)sc1C(=O)/C=C/c1ccc(Cl)cc1,0.381,> 51.8,0.201,0.515,1.09,26,0.353,> 100,0.241,–,0.325,5.48,2.19,> 100,0.494,> 100,1.09,24.4,22.8,> 100
Cc1nc2c(n1C)C(=O)c1ccccc1C2=O,40,> 100,48.1,> 100,> 100,> 100,18,> 100,40.6,> 100,25.2,68.6,> 100,> 100,> 100,> 100,> 100,> 100,29.4,> 100
C1=C2CCCC3=Cc4ccccc4OC23Oc2ccccc21,4.35,> 100,1.64,4.68,> 100,> 100,3.47,16.4,2.3,6.2,3.06,> 100,5.22,> 100,3.52,> 100,9.87,> 100,5.49,> 100
Cc1nc2ccc(NC(=O)CCNC(=O)CCCc3ccc(CC(C(=O)O)C(=O)O)cc3)cc2s1,> 100,> 100,> 100,> 100,> 100,> 100,> 100,> 100,> 100,> 100,> 100,> 100,> 100,> 100,> 100,> 100,> 100,> 100,> 100,> 100
O=c1[nH]c2ccccc2n1CCCN1CCC(n2c(=O)[nH]c3cc(Cl)ccc32)CC1,–,31.4,–,29.7,–,45,–,32.2,–,29.7,–,38.9,–,31.1,–,51.5,–,39.4,–,30.6
O=c1cc(N/N=C/c2ccc(F)cc2)c2cc(Cl)ccc2[nH]1,17.4,> 100,13.4,> 100,14.6,> 100,20.3,> 100,17.4,74.3,24.8,> 100,19.8,> 100,20.1,83.4,47.1,> 100,15.5,56.5
COc1ccc(-c2nc(-c3nc4ccc(F)cc4[nH]3)c3ccccn23)cc1,3.61,17.8,8.05,> 100,2.72,9.06,6.83,> 100,4.49,25,6.14,27.1,22.8,> 100,10.3,37.3,16.1,57.9,9.15,57.2
COc1cc(NC(=O)CCSc2nc3ccc(C)cc3c(=O)n2Cc2ccccc2)cc(OC)c1OC,4.35,> 100,> 100,> 100,2.66,12.3,5.31,> 100,11.3,76.7,5.05,> 100,6.3,> 100,4.75,39.3,7.43,28.4,4.96,> 100
O=C(Oc1ccc(CO[N+](=O)[O-])cc1)c1ccccc1,0.101,0.241,0.157,0.307,0.214,0.518,0.239,1.09,0.158,0.318,0.153,0.295,0.171,0.332,0.348,1.3,0.173,0.334,0.207,0.532
Cn1cc(-c2ccc3nnc(Sc4ccc5ncccc5c4)n3n2)cn1,53,> 100,> 100,> 100,> 59.1,> 100,79.2,> 100,> 100,> 100,> 91.4,> 100,> 100,> 100,> 73.9,> 100,40.7,> 100,> 100,> 100
CSCCCNC(=O)c1ccc2c(c1)/C(=C/c1[nH]c(C)cc1C)C(=O)N2,0.548,> 100,0.856,> 100,2.24,> 100,0.872,> 100,0.843,> 100,1.98,> 100,1.65,> 100,0.366,62.8,6.44,> 100,4.67,> 100
O=C1/C(=C/c2ccccc2)CN(C(=O)CCN2CCCC2)C/C1=C\c1ccccc1,–,0.674,–,3.24,–,13.9,–,4.52,–,2.8,–,7.66,–,3.38,–,20.5,–,8.62,–,6.65
C1CC[N-]CC1.CC(=N\O)/C(C)=N/O.CC(=N\O)/C(C)=N/O.OC1[CH-]CCCC1.[Co+2],30.3,> 100,33.9,> 100,> 100,> 100,30.8,> 100,15.7,31,52,> 100,32.5,> 100,> 100,> 100,39.8,> 100,29.5,> 100
O=C(c1ccccc1)c1c(NCC(O)CN2CCOCC2)n(Cc2ccccc2)c(=O)n(Cc2ccccc2)c1=O (centres undefined),34.1,> 100,35.2,> 100,31.6,> 95.1,42.9,> 100,38.9,> 100,27.6,> 77.3,> 64.1,> 100,> 29.9,> 70.1,30.2,> 100,55.8,> 100
C=C1CCC2(C#N)[C@H]3[C@H](CC[C@@H]2C)[C@@H](C)C[C@@H](CC(C)(C)NC(=O)CN2CCC2=O)[C@H]13 (some centres undefined),3.43,16.2,6.19,23.8,11.2,33.7,7.81,20.5,13.5,45.6,3.72,15,10.2,23,15.8,50.2,16.2,43.3,5.4,26.7
